From patent US20180161425A1, “NOVEL PROTEIN STRUCTURE USED FOR EFFICIENT ANTIBODY PRODUCTION IN IMMUNIZATION” (priority 2014, published 2018) come the findings set out here.

“And” between values parts separate entries of the source, which are not always exact repeats. Equal values may be shown once.

For one assay, the system named is MDCK cells. The format is cell-based.
The subject of another assay is MCP-1. Set-up: species or system mice. Conditions: mouse, in vivo.

As for DRLFFKCIYRRFKYGLKRG [AH5], the “cell binding and internalization of FITC labeled peptide” value (shortened to “cell binding and internalization”) in the assay on MDCK cells is “did not bind to the membrane as well as AH2, they did all bind and were internalized to the cell at different levels”.

With KRLFKLSYIETRYMASDK [SWS-AH], the “cell binding activity when compared to AH2 peptide” value in the assay with MDCK cells was 24%. As to DRLFFKCIYRRLKYGLKRG [AH3], the “cell binding and internalization” value in the assay with MDCK cells was “did not bind to the membrane as well as AH2, they did all bind and were internalized to the cell at different levels”.

MHSATAAQLETLRLFKFP [ANMV-AH]: the “cell binding activity when compared to AH2 peptide” value with MDCK cells was 15%. For flagellin, the “plasma MCP-1 level” value in the assay with MCP-1 is 3000 pg/mL and 2600 pg/mL. For MPRLFKIYAKNYFLTYPN [TYLCV-AH], in the assay with MDCK cells, the “cell binding activity when compared to AH2 peptide” value is 25%. As to DRLFFKCVYRLFKHGLKRG [AH4], in the assay on MDCK cells, the “cell binding and internalization” value is “did not bind to the membrane as well as AH2, they did all bind and were internalized to the cell at different levels”. For the substance RTLSLLRRLFFKSDLGFL [AHV-AH], the “cell binding activity when compared to AH2 peptide” value in the assay with MDCK cells is given as 40%.
